Measurements from patent publication US8450070B2, “Method for screening of cell-protecting agent” (Takeda Pharmaceutical Company Limited, priority 2007, dated 2013).

Columns and labels:
Hsp70 = Hsp70 expression-inducing activity in the presence of IL-1β stimulation (western blotting); assay type: cell-based; settings: human normal articular chondrocytes, 10 ng/ml IL-1β, 2 days; FIG. 3
Protocol: In an embodiment of the step (2), the heat shock protein expression-inducing activity of a test compound was measured using a cell capable of expressing a heat shock protein. Hsp70 was used as the heat shock protein.
Human normal articular chondrocytes (manufactured by Clonetics Corporation) were grown by monolayer culture in a growth medium for articular chondrocytes (CGM, manufactured by Clonetics Corporation) and then suspended to 2.2×10^4 cells/ml in a 1:1 mixture of Dulbecco's modified Eagle's medium/Ham F12 medium. The cell culture was inoculated into a 12-well plate (manufactured by Asahi Techno Glass Corporation) by 3 ml per each well, followed by incubation at 37° C. for a day under 5% CO2. […]
After completion of the electrophoresis, the proteins in the gel were adsorbed onto a nitrocellulose membrane (Hybond-ECL; manufactured by Amersham Pharmacia Biotech Inc.) using HorizBlot (manufactured by Atto Co.). Each protein level was measured by western blotting using anti-Hsp70 antibody (manufactured by Transduction Laboratories) or anti-β-actin antibody (manufactured by Sigma, Inc.) as a primary antibody and horseradish peroxidase-labeled anti-mouse IgG antibody (manufactured by Kirkegaard & Perry Laboratories) as a secondary antibody. β-Actin was used to verify adsorption of the proteins onto the nitrocellulose membrane.

[1] = test system: human normal articular chondrocytes; assay: Cell protecting activity against NOR3-induced apoptosis (MTT); assay type: cell-based; settings: 10 ng/ml IL-1β, 110 μM NOR3, human normal articular chondrocytes; FIG. 6
Protocol: First, human normal articular chondrocytes were suspended to 4×10^4 cells/ml in a growth medium for articular chondrocytes. The cell culture was inoculated into a 96-well plate, followed by incubation at 37° C. for a day under 5% CO2. The medium was exchanged to a 1:1 mixture of Dulbecco's modified Eagle's medium/Ham F12 medium. The test compound and 10 ng/ml of […] were added to the medium, followed by further incubation at 37° C. for a day under 5% CO2. Next, 110 μM nitrogen monoxide-releasing reagent, i.e., (±)-(E)-4-ethyl-2-[(E)-hydroximino]-5-nitro-3-hexenamide (NOR3; manufactured by Dojindo) was added and the mixture was incubated for a day to induce apoptosis of the cells. After completion of the incubation, a viability of the cells was determined using 3-(4,5-dimethylthiazol-2-yl)-2,5-diphenyltetrazorium bromide (MTT; manufactured by Dojindo). […] Compound A was verified to have an excellent cell protecting activity.

[2] = test system: human normal articular chondrocytes; assay: Cytotoxicity (cell viability, WST-8); assay type: cell-based; settings: for cell viability (WST-8): 2 days, FIG. 7
Protocol: First, human normal articular chondrocytes were suspended to 5×10^4 cells/ml in a growth medium for articular chondrocytes. The cell culture was inoculated into a 96-well plate, followed by incubation at 37° C. for a day under 5% CO2. The test compound was added to the medium, followed by incubation at 37° C. for further 2 days under 5% CO2.

His-hHsp90α = molecular target: T1, His-hHsp90α (Homo sapiens, UniProt P07900); assay: Inhibition of binding of His-hHsp90α to immobilized Compound B (SDS-PAGE, silver stain); settings: various concentrations of test compound; FIG. 1
T1 construct: the Hsp90α coding region was amplified from a human skeletal complementary DNA (cDNA) library; His tag (N); made in house; host or cells: Escherichia coli BL21 (DE3), plasmid pET28b-hHsp90α
Protocol: In an embodiment of the step (1) in the screening method of the invention, the steps of measuring and comparing (i) the binding level of an immobilized imidazothiazine derivative to Hsp90 in the absence of a test compound and (ii) the binding level of an immobilized imidazothiazine derivative to Hsp90 in the presence of a test compound, were performed as follows.
Purified human Hsp90α protein (His-hHsp90α) tagged with histidine at the N terminus through using Escherichia coli was employed as Hsp90.
First, 10 μg of His-hHsp90α was reacted with a test compound of various concentrations in 0.2 ml of a binding buffer (10 mM Tris-HCl, pH 7.5, 20% glycerol, 1 mM EDTA, 500 mM NaCl and 1 mM DTT) containing 0.5% DMF for 30 minutes.

His2-hHsp90α protein = molecular target: T2, His2-hHsp90α protein (Homo sapiens, UniProt P07900); assay: Inhibition of binding of [3H]-Compound A to immobilized His2-hHsp90α (SPA beads); settings: 40 nM [3H]-Compound A, various concentrations of test compound; FIG. 2
T2 construct: the hHsp90α gene was excised from pET28b-hHsp90α using the BamHI cleavage site and the Bpu1102I cleavage site; made in house; host or cells: Escherichia coli BL21 (DE3), plasmid pET15b-hHsp90α
Protocol: In another embodiment of the step (1) of the screening method according to the present invention, measuring and comparing (i) the binding level of immobilized Hsp90 to a labeled imidazothiazine derivative in the absence of a test compound and (ii) the binding level of immobilized Hsp90 to a labeled imidazothiazine derivative in the presence of a test compound were performed.
Purified human Hsp90α protein (His2-hHsp90a) tagged with histidine at the N terminus through using Escherichia coli was employed as Hsp90.
The mixture was reacted overnight at 4° C. in a 96-well LumiNunc plate (manufactured by Nunc, Inc.). The above procedure gave immobilized Hsp90 in which the His2-hHsp90α protein was bound to Ysi (2-5 μm) copper his-tag SPA beads via histidine tag.

Hsp90/HSF-1 complex = molecular target: T3, Hsp90/HSF-1 complex (Homo sapiens, UniProt P07900); assay: Hsp90/HSF-1 complex disrupting activity (immunoprecipitation from chondrocyte lysate, western blotting); assay type: biochemical; settings: 1 μM compound, 30 minutes, FIG. 4, lane 3
T3 construct: host or cells: human normal articular chondrocytes (lysate)
Protocol: In another embodiment of the step (2), the activity of a test compound to disrupt the Hsp90/HSF-1 complex was measured. The substance having the activity to disrupt Hsp90/HSF-1 complex is expected to show the heat shock protein expression-inducing activity.
Human normal articular chondrocytes (manufactured by Clonetics) were washed with PBS and dissolved in RIPA buffer solution (50 mM Tris-HCl, pH 8.0, 150 mM NaCl, 1% NP-40, 0.1% SDS and 0.5% deoxycholic acid) containing a proteinase inhibitor (Complete; Boehringer Mannheim). After the solution was centrifuged at 16,000×g for 10 minutes, the supernatant was used as the lysate containing the Hsp90/HSF-1 complex. […]
After completion of the electrophoresis, the proteins in the gel were adsorbed onto a nitrocellulose membrane (Hybond-ECL; manufactured by Amersham Pharmacia Biotech Inc.) using HorizBlot (manufactured by Atto Co.). Each protein level was measured by western blotting using anti-HSF-1 antibody (manufactured by StressGen) or anti-Hsp90 antibody (manufactured by Transduction Laboratories) as a primary antibody and horseradish peroxidase-labeled anti-rabbit IgG antibody (manufactured by Cell Signaling Technology) or horseradish peroxidase-labeled anti-mouse IgG antibody (manufactured by Kirkegasrd & Perry Laboratories) as a secondary antibody.

[3] = test system: Hsp90 client protein such as glucocorticoid receptor, Akt, cyclin dependent kinase 4; assay: Hsp90 client protein degradation-inducing activity (western blotting); assay type: cell-based, human
Protocol: Human normal articular chondrocytes were suspended to 0.5×10^5 cells/ml in a growth medium for articular chondrocytes. The cell culture was inoculated into a 6-well plate (manufactured by Falcon Co., Ltd.) by 2 ml per each well, followed by incubation at 37° C. for a day under 5% CO2. The medium was exchanged to a 1:1 mixture of Dulbecco's modified Eagle's medium/Ham F12 medium, followed by further incubation at 37° C. for a day under 5% CO2.
The test compound was added to the culture medium and the cells were further incubated for about 18 hours at 37° C. under 5% CO2. After completion of the incubation, the cells were washed once with phosphate-buffered saline (PBS) and 200 μl of a cell lysate buffer (10 mM Tris(hydroxymethyl)aminomethane, pH 7.4, 150 mM NaCl, 1 mM EDTA.2Na, 1 mM EGTA, 0.5 mM (p-aminophenyl)methanesulfonyl fluoride hydrochloride, 200 μM sodium β-glycerophosphate n-hydrate, 20 mM NaF, 2 mM sodium diphosphate decahydrate, 10 μg/ml aprotinin, 10 μg/ml leupeptin, 1% Triton X-100, 0.5% Nonidet P40, 0.1% SDS and 1 mM o-vanadate) was added thereto. After the cell debris was scraped from the plate using a cell scraper, the cell lysate buffer was recovered. The recovered cell lysate buffer was mixed with the equal volume of a sample buffer (Tris-SDS-ME Sample Buffer; manufactured by Daiichi Pure Chemicals). […]

COC1=C2C[C@@H](C)C[C@H](OC)[C@H](O)[C@@H](C)/C=C(\C)[C@H](OC(N)=O)[C@@H](OC)/C=C\C=C(/C)C(=O)NC(=CC1=O)C2=O (relative stereo) [GA, [18S-(4E,5Z,8R*,9R*,10E,12R*,13S*,14R*,16S*)]-9-[(aminocarbonyl)oxy]-13-hydroxy-8,14,19-trimethoxy-4,10,12,16-tetramethyl-2-azabicyclo[16.3.1.]docosa-4,6,10,18,21-pentan-3,20,22-trion, reference compound]
Hsp70 protein level (Hsp70): clearly increased | apoptosis / cell viability after NOR3 (MTT) [1]: decreased the cell viability | cell viability (WST-8) ([2]; at concentrations of 30 nM or higher): greatly decreased

Cc1ccc(S(=O)(=O)/N=c2\[nH]c(=O)n3c(C)c(C)sc(SCCCC(F)(F)C(F)(F)F)c2-3)cc1 [Compound A, N-[(1Z)-5,6-dimethyl-3-oxo-8-[(4,4,5,5,5-pentafluoropentyl)sulfanyl]-2,3-dihydro-1H-imidazo[5,1-c][1,4]thiazin-1-ylidene]-4-methylbenzenesulfonamide]
binding level of the His-hHsp90α protein to the immobilized Compound B (His-hHsp90α): dose-dependently decreased | binding level of the His2-hHsp90α protein to [3H]-compound A (His2-hHsp90α protein): dose-dependently decreased | Hsp70 protein level (Hsp70): clearly increased | co-precipitation of HSF-1 with Hsp90 (anti-Hsp90 antibody immunoprecipitation) (Hsp90/HSF-1 complex): not observed | intracellular protein level of Hsp90 client protein (glucocorticoid receptor, Akt, cyclin dependent kinase 4) ([3]; human normal articular chondrocytes, about 18 hours, at concentrations of 10 μM or less, FIG. 5): did not affect | client protein degradation-inducing activity as compared to GA ([3]; ratio relative to GA): less than 1/1000 | apoptosis / cell viability after NOR3 (MTT) [1]: dose-dependently suppressed the apoptosis | cell viability (WST-8) ([2]; at concentrations of 10 μM or less): did not affect | cytotoxicity relative to that of GA ([2]; ratio relative to GA): 1/300
